In test [1] the target is T1, D1R; D1 receptor fused to C-terminal RLuc (BRET assay) (Homo sapiens, UniProt P21728). The experiment in a line: cell-based. Details: species or system HEK293T. As to conditions: HEK-293T, read-out: β-arrestin Emax (%), D1R.
For test [2], the target named is T2, D2R; D2Long receptor fused to C-terminal RLuc (BRET assay) (Homo sapiens, UniProt P14416). The experiment in a line: cell-based. Details: species or system HEK293T. As to conditions: for Emax: HEK-293T, read-out: β-arrestin Emax (%), D2R.
T2 sequence (P14416 whole entry, the tested form may be a part): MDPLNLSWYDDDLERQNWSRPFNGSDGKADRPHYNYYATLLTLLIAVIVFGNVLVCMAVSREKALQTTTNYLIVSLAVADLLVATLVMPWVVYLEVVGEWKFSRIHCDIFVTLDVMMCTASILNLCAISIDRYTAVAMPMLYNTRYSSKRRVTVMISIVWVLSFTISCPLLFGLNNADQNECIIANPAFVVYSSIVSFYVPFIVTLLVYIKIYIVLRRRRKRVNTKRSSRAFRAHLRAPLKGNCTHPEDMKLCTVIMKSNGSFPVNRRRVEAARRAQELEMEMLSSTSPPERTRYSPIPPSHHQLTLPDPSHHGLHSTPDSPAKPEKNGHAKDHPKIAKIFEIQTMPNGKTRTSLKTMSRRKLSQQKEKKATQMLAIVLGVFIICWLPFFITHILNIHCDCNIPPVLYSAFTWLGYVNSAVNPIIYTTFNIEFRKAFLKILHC
The target of test [3] is T2, D2R; D2Long receptor fused to C-terminal RLuc (BRET assay). In words: BRET beta-arrestin2 recruitment, HEK293T. Format: cell-based.
In test [4] the target is T1, D1R; D1 receptor fused to C-terminal RLuc (BRET assay). The experiment in a line: BRET beta-arrestin2 recruitment, HEK293T. Format: cell-based. A general note: BRET reads energy transfer from a luciferase to a nearby fluorophore.
Test [5] addresses T2, D2R; D2Long receptor fused to C-terminal RLuc (BRET assay). The experiment in a line: cell-based. Details: species or system HEK293T. The note with it: HEK-293T, read-out: β-arrestin Emax (%), D2R.
Test [6] concerns the target T1, D1R; D1 receptor fused to C-terminal RLuc (BRET assay). The experiment in a line: cell-based. The arrangement: species or system HEK293T. As to conditions: HEK-293T, read-out: β-arrestin Emax (%), D1R. The source holds these as a separate data set.
Test [7] addresses T2, D2R; D2Long receptor fused to C-terminal RLuc (BRET assay). In words: cell-based. Details: species or system HEK293T.
For test [8] the target is unchanged. The experiment in a line: cell-based. The arrangement: species or system HEK293T. The source holds these as a separate data set.
For test [9] the target is unchanged. The experiment in a line: cell-based. Details: species or system HEK293T. As to conditions: HEK-293T, read-out: β-arrestin Emax (%), D2R. This is another data set of the same source.
Test [10] concerns the target T1, D1R; D1 receptor fused to C-terminal RLuc (BRET assay). The experiment in a line: cell-based. The arrangement: species or system HEK293T. As to conditions: HEK-293T, read-out: β-arrestin Emax (%), D1R. The source holds these as a separate data set.
Test [11] concerns the target T2, D2R; D2Long receptor fused to C-terminal RLuc (BRET assay). The experiment in a line: cell-based. Details: species or system HEK293T. This is another data set of the same source.
For test [12] the target is unchanged. The note with it: agonist.
Test [13] deals with T1, D1R; D1 receptor fused to C-terminal RLuc (BRET assay). In words: cell-based. Details: species or system HEK293T. As to conditions: HEK-293T, read-out: β-arrestin Emax (%), D1R. This is another data set of the same source.

Like-named read-outs stand apart in the source and are kept apart here.

These results are taken from doi:10.1101/2021.10.01.462758v2 (biorxiv, 2021).

T1 sequence (P21728 whole entry, the tested form may be a part): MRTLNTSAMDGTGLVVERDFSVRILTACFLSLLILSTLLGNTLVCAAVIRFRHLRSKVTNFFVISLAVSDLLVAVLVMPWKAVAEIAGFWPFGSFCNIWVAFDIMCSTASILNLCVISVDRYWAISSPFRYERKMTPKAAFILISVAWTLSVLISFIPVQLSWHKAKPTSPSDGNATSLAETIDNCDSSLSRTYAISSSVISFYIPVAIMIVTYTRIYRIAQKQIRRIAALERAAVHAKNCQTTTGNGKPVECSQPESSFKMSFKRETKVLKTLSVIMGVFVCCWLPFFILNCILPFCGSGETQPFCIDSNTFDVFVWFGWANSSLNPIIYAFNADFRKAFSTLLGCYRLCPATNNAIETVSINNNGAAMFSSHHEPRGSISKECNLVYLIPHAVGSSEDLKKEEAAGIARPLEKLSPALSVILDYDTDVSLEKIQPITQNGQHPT

As to `Oc1cc2c(cc1O)[C@H]1c3cc(Br)sc3CN[C@@H]1CC2` (racemic) [1b], the Emax – broadly, the greatest response seen or fitted, relative to the assay's reference – in test [1] is 138 ± 8.41%; in [2] it was 60.3 ± 2.27%.
As for `Oc1cc2c(cc1O)[C@H](c1cccs1)[C@@H](NCc1ccccc1)CC2` (racemic) [1l], in test [2], the Emax was 8.62 ± 3.15%.
For the compound `N[C@H]1CCc2cc(O)c(O)cc2[C@@H]1c1cccs1` (racemic) [1m], the maximal response (Emax) was determined as 3.7 ± 1.67% in test [1] and 27 ± 1.8% in [2].
For the compound `CN1Cc2sccc2[C@@H]2c3cc(O)c(O)cc3CC[C@H]21` (relative stereo) [1j], the maximum response (Emax) in test [2] came to 73.4 ± 17.8%. For the same compound, the results for the half-maximal effective concentration (EC50) in test [3] and in test [4] were 7.48 µM and over 10 µM, respectively.
`Oc1cc2c(cc1O)[C@H]1c3cc(Br)sc3CN[C@@H]1CC2` [1c]: the values for the Emax in test [1] and in [2] were 137 ± 9.35% and 70.3 ± 3.41%, respectively.
On to `Oc1cc2c(cc1O)[C@@H]1c3cc(Br)sc3CN[C@H]1CC2` [1d], for which the maximum response (Emax) amounted to 52.8 ± 9.7% in test [1] and 50.6 ± 4.02% in test [2]. Also, the concentration for a half-maximal effect (EC50) (usually the concentration that produces a half-maximal response) was 5.62 µM in test [3] and 2.63 µM in [4].
With `Oc1cc2c(cc1O)[C@H]1c3cc(-c4cccc(C(F)(F)F)c4)sc3CN[C@@H]1CC2` [1h], the maximum response (Emax) in [2] turned out to be 73 ± 4.69%. Moreover, the EC50 in test [3] was 4.84 µM; in test [4], over 10 µM.
For `Oc1cc2c(cc1O)[C@@H]1c3cc(-c4cccc(C(F)(F)F)c4)sc3CN[C@H]1CC2` [1i], the concentration giving a half-maximal response (EC50) in test [3] and in test [4] was over 10 µM throughout.
Take `Cc1cc(-c2cccc(O)c2O)cs1` [2a]: the Emax stood at 13.9 ± 3.68% in [5] and 30.3 ± 5.6% in [6]. In addition, in test [4], the concentration for a half-maximal effect (EC50) came to 6.9 µM.
In the case of `Oc1cccc(-c2cccc(C(F)(F)F)c2)c1O` [2b], the EC50 in [7] was over 10 µM; in test [4], 0.0052 µM. In addition, in test [6], the Emax worked out at 6.13 ± 3.11%.
With `N#Cc1ccc(-c2cccc(O)c2O)cc1` [2c], the maximum response (Emax) in test [5] worked out at 1.61 ± 1.27%. Also, the concentration giving a half-maximal response (EC50) in [7] was 0.0317 µM; in [4], over 10 µM.
`Oc1cccc(-c2cccnc2)c1O` [2d]: in test [6], the Emax came out at 2.6 ± 1.8%. For the same compound, the EC50 is 0.053 µM in test [4] and over 100 µM in test [8].
As for `N#Cc1cccc(-c2cccc(O)c2O)c1` [2e], the EC50 in test [4] was over 10 µM; in test [8], over 100 µM.
In the case of `NS(=O)(=O)c1ccc(-c2cccc(O)c2O)cc1` [2f], the Emax in test [6] was found to be 4.6 ± 1.5%. Besides, the EC50 in test [4] was 0.0514 µM; in test [8], over 100 µM.
As to `Nc1cccc(-c2cccc(O)c2O)c1` [2g], the Emax in test [6] was found to be 4 ± 1.6%. For the same compound, the values for the half-maximal effective concentration (EC50) in test [4] and in test [8] were 0.00733 µM and over 100 µM, respectively.
For `Oc1cccc(-c2cncc3ccccc23)c1O` [2h], the maximal response (Emax) in test [6] was determined as 8.1 ± 2.1%. Besides, the EC50 is 0.689 µM in test [4] and over 100 µM in test [8].
As to `Oc1cccc(-c2cnc3ccccc3c2)c1O` [2i], the EC50 was over 10 µM in test [4] and over 100 µM in test [8].
Turning to `OCCc1ccc(O)c(O)c1` [3a], the results for the EC50 in test [3] and in test [4] were 5.26 µM and 0.229 µM, respectively. Also, the maximal response (Emax) is 9.98 ± 2.96% in test [9] and 11.5 ± 3.05% in test [10].
Turning to `OCCCc1ccc(O)c(O)c1` [3b], the EC50 in [11] is over 10 µM; in [4], 0.534 µM. Moreover, in test [10], the maximal effect (Emax) was found to be 3.5 ± 1.9%.
For `CCCc1cc2c(s1)CN[C@H]1CCc3cc(O)c(O)cc3[C@H]21` [(+)-A-86929], the values for the Emax in test [1] and in [2] were 94.1 ± 6.55% and 38 ± 4.45%, respectively. Also, the results for the concentration for a half-maximal effect (EC50) in test [3] and in test [4] were 2.07 µM and 2.8 µM, respectively.
In the case of `CCCc1cc2c(s1)CN[C@@H]1CCc3cc(O)c(O)cc3[C@@H]21` [(-)-A-86929], the Emax in test [1] was determined as 95.5 ± 6.88%; in [2], 79.7 ± 3.83%. In addition, the results for the 50% effective concentration (EC50) in [3] and in test [4] were 0.27 µM and 0.607 µM, respectively.
For `CCCc1cc2c(s1)CN[C@@H]1CCc3cc(OC(C)=O)c(OC(C)=O)cc3[C@@H]21` [ABT-431], the Emax in [1] worked out at 88.2 ± 3.06%; in test [2], 23 ± 2.15%. In addition, the results for the half-maximal effective concentration (EC50) in [3] and in [4] were 3 µM and 3.2 µM, respectively.
With `NCCc1ccc(O)c(O)c1` [DA], in [12], the “D2R beta-arrestin Emax (%)” value is listed as 90.29±3.23%. In addition, in test [2] (beta-arrestin2 recruitment, % of dopamine, agonist), the “β-arrestin Emax (%), D2R” value came out at 90.29±3.23%.
As to `COc1cccc(-c2ccc(O)c(O)c2)c1` [Z4642446630], the Emax in [13] came out at 17.1 ± 5.3%. For the same compound, the response in test [4] (agonist mode, beta-arrestin2 pathway, pH […]) was half-maximal at 5.48 µM (EC50).
